# From paper PMC12369479 (Journal of Experimental Botany, 2025)
# Values joined by “and” are separate entries in the source; they are usually repeats but may differ in a detail not shown here. Identical values can stand only once. Like-named read-outs stand apart in the source and are kept apart here.
# Legend:
# [1] = biological target: T1, ZmADK2 (Zea mays, UniProt B4FFH8, T4S); test: Binding affinity by microscale thermophoresis (MST); settings: for Kd: MST; for weaker affinity compared with Ado: ratio of KD values
# T1 sequence (B4FFH8 1-342 T4S): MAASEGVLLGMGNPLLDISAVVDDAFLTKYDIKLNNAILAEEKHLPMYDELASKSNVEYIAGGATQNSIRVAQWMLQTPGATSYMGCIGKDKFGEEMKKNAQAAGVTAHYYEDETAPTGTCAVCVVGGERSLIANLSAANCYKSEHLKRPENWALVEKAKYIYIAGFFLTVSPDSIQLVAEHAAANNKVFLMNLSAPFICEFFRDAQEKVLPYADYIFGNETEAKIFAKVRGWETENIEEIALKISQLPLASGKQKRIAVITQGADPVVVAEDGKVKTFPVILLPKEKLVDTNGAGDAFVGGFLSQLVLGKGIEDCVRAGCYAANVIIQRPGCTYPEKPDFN
# Procedure: (§1) The microscale thermophoresis (MST) method was used to determine the binding affinity of various ribosides for ZmADK2 and PpADK1. Proteins were fluorescently labeled with RED-tris-NTA dye (www.nanotemper-technologies.com) using a 1:1 dye/protein molar ratio. The labeled protein was adjusted to 100–300 nM in 50 mM HEPES buffer pH 7.5, 1 mM MgCl2, and 0.2% Tween. Measurements were performed in premium capillaries on a Monolith NT.115 instrument at 30 °C with 5 s/30 s/5 s laser off/on/off times, respectively, with continuous sample fluorescence recording. Thermal stability was measured by nano-differential scanning fluorimetry on a Prometheus NT.48 instrument (www.nanotemper-technologies.com) in various buffers covering a pH (7.0–9.5) and temperature range (25–95 °C), with a heating rate of 1 °C min^–1, and using NT melting control software. Protein unfolding was measured by detecting the temperature-induced change in tryptophan fluorescence intensity at emission wavelengths of 330±5 nm and 350±5 nm. The melting temperature (Tm) was deduced from the maximum of the first derivative of the fluorescence ratios F350/F330.
# [2] = biological target: ZmADK3 (Zea mays, UniProt A0A1D6E5Z5); test: ADK activity, coupled reaction with PK and LDH; assay type: biochemical; settings: ZmADK3; 100 µM substrate; 10 mM ATP; pH 7.5; 30 °C
# Chain of ZmADK3 (A0A1D6E5Z5 entry or part of it): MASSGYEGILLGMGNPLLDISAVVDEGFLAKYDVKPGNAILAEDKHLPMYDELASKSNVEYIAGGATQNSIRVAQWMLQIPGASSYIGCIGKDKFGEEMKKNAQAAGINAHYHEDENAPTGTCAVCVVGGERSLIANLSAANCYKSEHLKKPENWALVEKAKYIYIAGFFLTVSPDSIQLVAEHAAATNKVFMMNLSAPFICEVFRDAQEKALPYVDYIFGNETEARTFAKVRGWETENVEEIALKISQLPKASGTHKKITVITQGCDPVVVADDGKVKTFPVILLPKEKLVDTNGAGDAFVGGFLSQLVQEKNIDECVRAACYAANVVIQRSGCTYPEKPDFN
# Procedure: Substrate analogs were purchased from Sigma-Aldrich (www.sigmaaldrich.com). […] In this assay, PK converts ADP produced by ADK and phosphoenolpyruvate (PEP) to pyruvate. Subsequently, LDH then converts pyruvate to lactate using the coenzyme NADH, with the conversion monitored at 340 nm. The reaction was conducted in 50 mM Tris–HCl buffer at pH 7.5, containing 50 mM KCl, 6 mM MgCl2, 300 µM PEP, 200 µM NADH, 10 mM ATP, 2 U of PK, and 2.5 U of LDH, using various nucleoside substrates. Kinetic constants were determined using GraphPad Prism 8.0 software (www.graphpad.com). Each measurement was performed six times using repetitive purified enzymes. […] The reaction mixture comprised 50 mM Tris–HCl pH 7.5, 5 mM MgCl2, 0.5 mM DTT, 30 mM NaF, 5 mM ATP, 40 µM substrate, and 2–150 ng of purified ADK, depending on the isoform. The reaction was incubated at 30 °C for up to 1 h.
# [3] = biological target: T1, ZmADK2; test: ADK activity, coupled reaction with PK and LDH; assay type: biochemical; settings: ZmADK2, 10 mM ATP, pH 7.5, 30 °C; for Specific activity: 100 µM substrate
# Procedure: (§2) Substrate analogs were purchased from Sigma-Aldrich (www.sigmaaldrich.com). The ADK activity was measured spectrophotometrically on an Agilent 8453 UV-Vis spectrophotometer (www.agilent.com) at 30 °C using a coupled reaction with pyruvate kinase (PK) and lactate dehydrogenase (LDH) (www.sigmaaldrich.com) ([Blondin et al., 1994]). In this assay, PK converts ADP produced by ADK and phosphoenolpyruvate (PEP) to pyruvate. Subsequently, LDH then converts pyruvate to lactate using the coenzyme NADH, with the conversion monitored at 340 nm. The reaction was conducted in 50 mM Tris–HCl buffer at pH 7.5, containing 50 mM KCl, 6 mM MgCl2, 300 µM PEP, 200 µM NADH, 10 mM ATP, 2 U of PK, and 2.5 U of LDH, using various nucleoside substrates. Kinetic constants were determined using GraphPad Prism 8.0 software (www.graphpad.com). Each measurement was performed six times using repetitive purified enzymes. The activities of all five ADKs were also measured by HPLC ([Moffatt et al., 1991]). The reaction mixture comprised 50 mM Tris–HCl pH 7.5, 5 mM MgCl2, 0.5 mM DTT, 30 mM NaF, 5 mM ATP, 40 µM substrate, and 2–150 ng of purified ADK, depending on the isoform. The reaction was incubated at 30 °C for up to 1 h. […] Similarly, the conversion of cytokinin ribosides to monophosphates was followed on a LiChrosphere 60 RP-Select B (5 µm) LiChroCART column 125-4 column equilibrated with 10 mM triethylamine at pH 5.4 plus 10% methanol, and stepwise eluted with 100% methanol.
# [4] = biological target: T2, PpADK1 (Physcomitrium patens, UniProt O49923); test: ADK activity, coupled reaction with PK and LDH; assay type: biochemical, Physcomitrella patens; settings: 100 µM substrate, 10 mM ATP, pH 7.5, 30 °C
# T2 construct: made in house; host or cells: E. coli T7 Express Iq
# T2 sequence (O49923 whole entry): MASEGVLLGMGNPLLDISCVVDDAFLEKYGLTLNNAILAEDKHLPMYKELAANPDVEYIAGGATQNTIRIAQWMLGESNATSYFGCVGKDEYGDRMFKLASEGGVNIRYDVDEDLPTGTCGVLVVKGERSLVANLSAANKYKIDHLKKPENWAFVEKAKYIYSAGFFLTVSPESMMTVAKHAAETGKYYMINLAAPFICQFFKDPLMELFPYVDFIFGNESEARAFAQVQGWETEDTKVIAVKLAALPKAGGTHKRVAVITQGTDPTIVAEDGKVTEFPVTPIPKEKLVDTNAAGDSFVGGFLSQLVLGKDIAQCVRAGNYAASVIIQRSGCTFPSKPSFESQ
# Procedure: as §2
# [5] = tested on: rabbit ADK; set-up: method as in Miller et al., 1979a; settings: ref Miller et al., 1979a; cited from earlier work
# [6] = biological target: ZmADK1 (Zea mays, UniProt K7UH13); test: ADK activity, coupled reaction with PK and LDH; settings: 100 µM substrate, 10 mM ATP, pH 7.5, 30 °C
# Chain of ZmADK1 (K7UH13 entry or part of it): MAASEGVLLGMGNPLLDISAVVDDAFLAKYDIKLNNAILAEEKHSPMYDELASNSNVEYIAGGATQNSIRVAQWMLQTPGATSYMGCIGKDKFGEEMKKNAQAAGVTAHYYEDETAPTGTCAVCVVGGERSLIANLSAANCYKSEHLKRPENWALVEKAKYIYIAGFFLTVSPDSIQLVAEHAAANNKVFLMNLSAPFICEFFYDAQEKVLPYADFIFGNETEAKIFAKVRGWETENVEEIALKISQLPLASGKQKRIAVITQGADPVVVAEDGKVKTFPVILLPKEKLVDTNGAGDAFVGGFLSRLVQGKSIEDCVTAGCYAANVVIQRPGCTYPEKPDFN
# Procedure: as §2
# [7] = biological target: PpADK2 (Physcomitrium patens, UniProt A9RF27); test: ADK activity, coupled reaction with PK and LDH; settings: 100 µM substrate, 10 mM ATP, pH 7.5, 30 °C
# Chain of PpADK2 (A9RF27 entry or part of it): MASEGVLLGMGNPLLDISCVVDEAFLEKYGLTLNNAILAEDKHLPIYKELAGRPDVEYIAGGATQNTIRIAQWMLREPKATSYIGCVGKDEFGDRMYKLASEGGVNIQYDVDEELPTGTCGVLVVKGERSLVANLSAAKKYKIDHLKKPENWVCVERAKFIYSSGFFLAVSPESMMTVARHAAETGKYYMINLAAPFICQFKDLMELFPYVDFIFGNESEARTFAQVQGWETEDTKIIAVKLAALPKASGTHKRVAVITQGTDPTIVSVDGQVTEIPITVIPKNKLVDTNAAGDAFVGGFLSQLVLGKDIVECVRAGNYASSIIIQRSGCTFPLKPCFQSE
# Procedure: as §2
# [8] = biological target: T2, PpADK1; test: Binding affinity by microscale thermophoresis (MST); set-up: species or system Physcomitrella patens
# Procedure: as §1
# [9] = KD, 50 mM HEPES pH 7.5, 1 mM MgCl2, first or only binding event
# [10] = 50 mM HEPES pH 7.5, 1 mM MgCl2, first or only binding event, read-out: KD
# [11] = second binding event (ATP site), read-out: second (higher) KD value
SMILES,"Kd [1, 9] [µM]",Specific activity [2] [nmol s^–1 mg^–1],Specific activity [3] [nmol s^–1 mg^–1],Specific activity [4] [nmol s^–1 mg^–1],Specific activity [6] [nmol s^–1 mg^–1],Specific activity [7] [nmol s^–1 mg^–1],Km [3] [µM],kcat [3] [s^–1],"Kd [1, 10] [µM]",other results
Nc1nc2c(ncn2[C@@H]2O[C@H](CO)[C@@H](O)[C@H]2O)c(=O)[nH]1 [Guanosine],217 ± 107,,,,,,,,,
"OC[C@H]1O[C@@H](n2cnc3c(NCc4ccccc4)ncnc32)[C@H](O)[C@@H]1O [BAPR, 6-benzylaminopurine riboside]",,5.3±0.4,5.1±0.6,0.84±0.04,3.3±0.2,0.89±0.07,,,,Km [5]: 12 µM; activity compared with Ado [5]: 29%
"CN(C)c1ncnc2c1ncn2[C@@H]1O[C@H](CO)[C@@H](O)[C@H]1O [N ^6,N^6-DimethylAdo, 6-(dimethylamino)-9H-purine-9-β-D-riboside]",,5.1±0.4,3.2±0.0,0.91±0.02,3.0±0.3,0.86±0.03,11.2 ± 2.8,0.20±0.02,12.3 ± 4.6,
CC(C)CNc1ncnc2c1ncn2[C@@H]1O[C@H](CO)[C@@H](O)[C@H]1O [N ^6-IsobutylAdo],,4.8±0.5,4.2±0.6,0.90±0.06,2.1±0.4,0.75±0.08,70.4 ± 8.9,0.21±0.01,45.9 ± 9.3,
O=c1[nH]c(=O)c2ncn([C@@H]3O[C@H](CO)[C@@H](O)[C@H]3O)c2[nH]1 [Xanthosine],166 ± 77,,,,,,,,,
"C/C(=C\CNc1ncnc2c1ncn2[C@@H]1O[C@H](CO)[C@@H](O)[C@H]1O)CO (relative stereo) [tZR, trans-zeatin riboside]",,2.7±0.4,3.8±0.4,0.74±0.06,2.7±0.3,0.83±0.08,,,,
"CNc1ncnc2c1ncn2[C@@H]1O[C@H](CO)[C@@H](O)[C@H]1O [N ^6-MethylAdo, 6-methylamino-9H-purine-9-β-D-riboside]",,5.1±0.4,2.9±0.3,0.89±0.00,2.7±0.2,0.86±0.03,10.7 ± 1.5,0.24±0.02,8.7 ± 2.5,
"Nc1ncnc2c1ccn2[C@@H]1O[C@H](CO)[C@@H](O)[C@H]1O [7-DeazaAdo, tubercidin]",2.2 ± 0.7,,,,,,3.4 ± 0.4,0.17±0.01,,weaker affinity compared with Ado [1]: ~ 5.5 fold
"Nc1ncnc2c1ncn2[C@@H]1O[C@H](CO)[C@@H](O)[C@@H]1O [AraA, Adenine arabinoside]",> 500,,,,,,,,,
O=c1ccn([C@@H]2O[C@H](CO)[C@@H](O)[C@H]2O)c(=O)[nH]1 [Uridine],> 5000,,,,,,> 1000,0.15±0.03,,
Nc1ncnc2c1ncn2C1CC(O)C(CO)O1 (centres unmarked) [2′-DeoxyAdo],,,,,,,506 ± 39,0.46±0.02,505 ± 94,"Km ([3]; listed as 2′-deoxyAdo): ~500 µM; Km [5]: 575 µM; Kd ([1]; 50 mM HEPES pH 7.5, 1 mM MgCl2, first or only binding event, listed as 2′-deoxyAdo, read-out: KD): ~500 µM; weaker affinity compared with Ado [1]: ~ 1200 fold"
"Nc1ncnc2c1ncn2[C@@H]1O[C@H](COP(=O)(O)OP(=O)(O)OP(=O)(O)OP(=O)(O)OP(=O)(O)OC[C@H]2O[C@@H](n3cnc4c(N)ncnc43)[C@H](O)[C@@H]2O)[C@@H](O)[C@H]1O [AP5A, diadenosine pentaphosphate]",,,,,,,,,14.5 ± 9.2,"Kd [8, 10]: 8.1 ± 1.1 µM; Kd [8, 11]: 630 ± 120 µM; Kd ([1]; second binding event (ATP site), read-out: second KD value): 949 ± 46 µM"
CC(C)Nc1ncnc2c1ncn2[C@@H]1O[C@H](CO)[C@@H](O)[C@H]1O [N ^6-IsopropylAdo],,3.8±0.3,3.9±0.5,0.96±0.09,2.2±0.2,0.83±0.05,54.8 ± 5.8,0.19±0.01,52.8 ± 13.9,
C/C(=C\CNc1ncnc2c1ncn2[C@@H]1O[C@H](CO)[C@@H](O)[C@H]1O)CO [ZR],,,,,,,,,,Km [5]: 20 µM; activity compared with Ado [5]: 6.3%
"Nc1ncnc2c1ncn2[C@@H]1O[C@H](CO)C[C@H]1O [3′-DeoxyAdo, cordycepin]",175 ± 9,,,,,,,,,Km [5]: 254 µM
Nc1ccn([C@@H]2O[C@H](CO)[C@@H](O)[C@H]2O)c(=O)n1 [Cytidine],286 ± 10,,,,,,,,,
OC[C@H]1O[C@@H](n2cnc3c(O)ncnc32)[C@H](O)[C@@H]1O [Inosine],440 ± 180,,,,,,,,,
Nc1ncnc2c1ncn2C1OC(COP(=O)(O)O)C(O)C1O (centres unmarked) [AMP],247 ± 71,,,,,,,,,"Kd [8, 10]: 121 µM; Kd [8, 11]: 8300 µM; Kd ([1]; second KD value, KD(2), second binding event (ATP site)): ~8000 µM and 8300 µM; Kd ([1]; second KD value, second binding event (ATP site)): 8300 ± 2070 µM"
Nc1ncnc2c1ncn2[C@@H]1O[C@H](COP(=O)(O)OP(=O)(O)O)[C@@H](O)[C@H]1O [ADP],,,,,,,,,,"Kd ([1]; 50 mM HEPES pH 7.5, 1 mM MgCl2, read-out: KD): 10300 ± 1200 µM"
